From ChEMBL document CHEMBL4229439, “Design, synthesis and antimycobacterial activity of 3,5-dinitrobenzamide derivatives containing fused ring moieties” (2018)
Values after ≈ are worked out from the molar mass of the structure shown. Active and inactive are the calls of the source. The rule behind the calls is not given here.

Legend:
[1] = test system: Mycobacterium tuberculosis; test: Antimycobacterial activity against isoniazid/rifampicin-resistant Mycobacterium tuberculosis isolate 16833 after 7 days by Alamar blue assay; format: functional; details: isolate 16833, 168 h
[2] = test system: Mycobacterium tuberculosis; test: Antimycobacterial activity against isoniazid/rifampicin-resistant Mycobacterium tuberculosis isolate 16995 after 7 days by Alamar blue assay; format: functional; details: isolate 16995, 168 h
[3] = test system: Mycobacterium tuberculosis; test: Antimycobacterial activity against isoniazid/rifampicin-resistant Mycobacterium tuberculosis isolate 16833 up to 10 ug/ml after 7 days by Alamar blue assay; format: functional, organism-based
[4] = test system: Mycobacterium tuberculosis; test: Antimycobacterial activity against isoniazid/rifampicin-resistant Mycobacterium tuberculosis isolate 16995 up to 10 ug/ml after 7 days by Alamar blue assay; format: functional, organism-based

For `O=C(NCc1ccc2c(c1)CNC2)c1cc([N+](=O)[O-])cc([N+](=O)[O-])c1`, the MIC [1] was > 10 µg/mL, the MIC [2] was > 10 µg/mL and the Activity [3] was “inactive”. For the same molecule, the Activity [4] was “inactive”.

`O=C(NCc1ccc2c(c1)CN(c1ccc(F)cc1)C2)c1cc([N+](=O)[O-])cc([N+](=O)[O-])c1` showed an MIC [1] of 0.066 µg/mL (≈ 0.151 µM) and an MIC [2] of 0.147 µg/mL (≈ 0.337 µM).

`CO[C@H]1/C=C/O[C@@]2(C)Oc3c(C)c(O)c4c(O)c(c(/C=N/N5CCN(C)CC5)c(O)c4c3C2=O)NC(=O)/C(C)=C\C=C\[C@H](C)[C@H](O)[C@@H](C)[C@@H](O)[C@@H](C)[C@H](OC(C)=O)[C@@H]1C` [RIFAMPIN] was tested, and the MIC [1] was > 40 µg/mL and the MIC [2] was > 40 µg/mL.

Work on `O=C(NCc1ccc2c(c1)CN(Cc1ccc(C(F)(F)F)cc1)C2)c1cc([N+](=O)[O-])cc([N+](=O)[O-])c1` yielded an MIC [1] of 0.278 µg/mL (≈ 0.556 µM) and an MIC [2] of 0.308 µg/mL (≈ 0.615 µM).

`COc1ccc(CN2Cc3ccc(CNC(=O)c4cc([N+](=O)[O-])cc([N+](=O)[O-])c4)cc3C2)cc1` was tested, and the MIC [1] was 0.286 µg/mL (≈ 0.618 µM) and the MIC [2] was 0.606 µg/mL (≈ 1.31 µM).

In the case of `O=C(NCc1ccc2c(c1)CCN(c1ccc(C(F)(F)F)cc1)C2)c1cc([N+](=O)[O-])cc([N+](=O)[O-])c1`, the MIC [1] is reported as 0.152 µg/mL (≈ 0.304 µM) and the MIC [2] is reported as 0.302 µg/mL (≈ 0.603 µM).

In the case of `O=C(NCc1ccc2c(c1)CN(Cc1ccc(F)cc1)C2)c1cc([N+](=O)[O-])cc([N+](=O)[O-])c1`, the MIC [1] is reported as 0.073 µg/mL (≈ 0.162 µM) and the MIC [2] is reported as 0.115 µg/mL (≈ 0.255 µM).

With `O=c1nc(N2CCN(CC3CCCCC3)CC2)sc2c([N+](=O)[O-])cc(C(F)(F)F)cc12` [MACOZINONE] the MIC [1] was < 0.016 µg/mL and the MIC [2] was < 0.016 µg/mL.

Work on `O=C(NCc1ccc2c(c1)CCN(Cc1cccc(F)c1)C2)c1cc([N+](=O)[O-])cc([N+](=O)[O-])c1` yielded an MIC [1] of 0.074 µg/mL (≈ 0.159 µM) and an MIC [2] of 0.076 µg/mL (≈ 0.164 µM).

Work on `O=C(NCc1ccc2c(c1)CCN(c1ccc(F)cc1)C2)c1cc([N+](=O)[O-])cc([N+](=O)[O-])c1` yielded an MIC [1] of 0.074 µg/mL (≈ 0.164 µM) and an MIC [2] of 0.078 µg/mL (≈ 0.173 µM).

Molecule `O=C(NCc1ccc2c(c1)CCN(Cc1ccc(Cl)cc1)C2)c1cc([N+](=O)[O-])cc([N+](=O)[O-])c1` has an MIC [1] of 0.143 µg/mL (≈ 0.297 µM) and an MIC [2] of 0.077 µg/mL (≈ 0.16 µM).

With `NNC(=O)c1ccncc1` [ISONIAZID] the MIC [1] was > 40 µg/mL and the MIC [2] was > 40 µg/mL.

For `O=C(NCc1ccc2c(c1)CN(Cc1ccc(OC(F)(F)F)cc1)C2)c1cc([N+](=O)[O-])cc([N+](=O)[O-])c1`, the MIC [1] was 0.565 µg/mL (≈ 1.09 µM) and the MIC [2] was 0.61 µg/mL (≈ 1.18 µM).
